Data: US12351830B2, “Method for maintaining and amplifying colon cancer stem cells and method for inducing colon cancer organoid” (NATIONAL UNIVERSITY CORPORATION KOBE UNIVERSITY, priority 2017, dated 2025)

Legend:
Assay type in all cases: cell-based, human
2nd V50-OKS-SW480 cells = experiment: 5-FU-chemoresistance analysis; conditions: 1 and 50 μg/ml 5-FU, 72 hr, relative to cells without 5-FU, n=3
Method: A total of 6×10^4 cells were seeded in 12-well plates with DMEM containing 0, 1, 50 μg/ml of 5-fluorouracil (5-FU, Kyowa Kirin) respectively. After incubation for 72 hr, the cell viability after 5-FU exposure was measured by the Countess (Invitrogen) system.

2nd V50-OKS cells [1] = experiment: sphere formation assay, induced colon cancer stem cells; conditions: VPA 1 mM, CHIR99021 3 μM, 10 days
Method: The cells were transferred to Ultra Low Attachment plates (Corning) in serum-free DMEM containing 10 ng/ml bFGF (WAKO), 10 μg/ml human insulin (CST), 100 μg/ml human transferrin (Roche) and 100 μg/ml BSA (Nacalai Tesque), and incubated at 37° C. in a 5% CO2 incubator for 10 days. The sphere count was calculated based on the sphere size which was larger than 100 μm. FK506 (25 μM), VPA (1 mM) or CHIR99021 (3 μM) were added to the medium and the spheres were then treated for 10 days. SW480 cells or 2nd V50 cells were subjected to flat plane adhesion culture in the presence of FK506 (Sigma) for 5-15 days, and the cell number was counted with Countess (Invitrogen) system. Alternatively, the cells were subjected to flat plane adhesion culture in the presence of FK506, and then suspension culture in the presence or absence of FK506 to form spheres. The sphere number was counted with Countess (Invitrogen) system. Unless otherwise specified, FK506 was used at a concentration of 25 μM in this Example.

2nd V50 cells = experiment: colony formation assay; conditions: 1 mM VPA, 3 μM CHIR or 25 μM FK506, day 12
Method: 2nd VP50 cells produced by 3 independent experiments were seeded in a 6 well plate at a density of 2×10^3 cells/well. The next day, the medium was changed to a medium not added with the compound, or a medium added with 1 mM VPA, 3 μM CHIR or 25 μM FK506. Thereafter, the medium was changed every 2 days or 3 days. On day 12, the cells were fixed with methanol, stained with crystal violet and the colonies were counted using a stereoscopic microscope.

2nd V50-OKS cells [2] = experiment: flat plane adhesion culture of induced colon cancer stem cells, cell count and morphology; conditions: for effect in flat plane adhesion culture (morphology, number of cells): VPA 1 mM, CHIR99021 3 μM, 5 days
Method: A human colon cancer cell line (SW480) and Plat-A amphotropic retrovirus packaging cells were obtained from the ATCC collection and Cell Biolabs (San Diego, CA, USA), respectively. Both cells were maintained in Dulbecco's modified Eagle's medium (DMEM) (Nacalai Tesque, Kyoto, Japan) supplemented with 10% fetal bovine serum (FBS) (Life Technologies) and penicillin (100 Units/ml) and streptomycin (100 μg/ml) (Life Technologies) at 37° C. in a humidified 5% […] incubator. In Plat-A culture, 1 μg/ml of puromycin (Nacalai Tesque) and 10 μg/ml of blasticidin (Funakoshi) were added. HUVECs (Lonza) and human MSCs (Lonza) were maintained in endothelial growth medium (Lonza) at 37° C. in a humidified 5% CO2 incubator. The cells were treated with FK506 (Sigma, 25 μM), VPA (WAKO, 1 mM) or CHIR99021 (Funakoshi, 3 μM) for 5 days. Thereafter, the cells were detached from the culture dish by an enzyme treatment, dispersed and the number of the cells was counted with Countess system (Invitrogen). The human induced pluripotent stem (hiPS) cells used as a control were generated from human peripheral blood mononuclear cells in the laboratory.
Culture of SW480 cells after introduction of reprogramming factor, isolation of induced colon cancer stem cell (hereinafter to be also referred to as “colon iCSC”)-enriched cell population and induction of colon cancer organoid were performed according to the schedule described in FIG. 6. Establishing culture of colon iCSC and sorting of colon iCSC-enriched cell population were performed according to the method described in the above-mentioned non-patent document 3 (flow cytometry utilizing Hoechst33342 eliminating ability in the presence of 50 μM verapamil). Hereinafter colon iCSC-enriched cell population (cell population not labeled with Hoechst33342 in the presence of 50 μM verapamil; V50 cell) obtained by the first sorting is sometimes to be abbreviated as 1st V50 cell (or 1st V50-OKS cell), and the V50 cell obtained by the second sorting is sometimes to be abbreviated as 2nd V50 cell (or 2nd V50-OKS cell). On the other hand, the cell population labeled with Hoechst33342 in the presence of 50 μM verapamil is sometimes to be abbreviated as non V50cell or non V50-OKS cell. Colon cancer organoid was induced by the method described in the below-mentioned sphere formation assay.
SW480 cells or 2nd V50 cells were subjected to flat plane adhesion culture in the presence of FK506 (Sigma) for 5-15 days, and the cell number was counted with Countess (Invitrogen) system. Alternatively, the cells were subjected to flat plane adhesion culture in the presence of FK506, and then suspension culture in the presence or absence of FK506 to form spheres. The sphere number was counted with Countess (Invitrogen) system. Unless otherwise specified, FK506 was used at a concentration of 25 μM in this Example.
Duplexed Stealth siRNA (Invitrogen) were used for reference examples and were transduced to the cells according to the manufacturer's protocol.

NFATc3-GFP = experiment: localization of NFATc3-GFP in 2nd V50-OKS cells; conditions: 2nd V50-OKS cells treated with compound
From the text: Retroviral vectors separately encoding OCT3/4, SOX2 or KLF4 in pMXs based vectors (pMXs-OCT3/4, pMXs-SOX2, pMXs-KLF4) were obtained from Addgene. Therefore, using these vectors, the polycistronic retroviral vector encoding OCT3/4, KLF4 and SOX2 (pMXs-OKS) was designed. That is, human OCT3/4, KLF4 and SOX2 were amplified by polymerase chain reaction (PCR) with primers containing the 2A sequences of Thosea asigna virus (T2A) and cloned into EcoRI site of pMXs vector using the In-fusion HD cloning system (Clontech). To generate pMXs-NFATc3-GFP construct, NFATc3-GFP cDNA were PCR amplified using HA-NFAT4 (3-407)-GFP (purchased from Addgene #21664) as a template and cloned into EcoRI-Notl site of pMXs-vector).
Finally, the cellular localization of NFAT after the treatment of FK506, VPA and CHIR in the iCSCs was examined. NFATc3 fused to green fluorescent protein (NFATc3-GFP; Aramburu J, et al., Science, 1999; 285:2129-33, Peuker K, et al., Nat Med, 2016, 22:506-15) was retrovirally introduced into 2nd V50-OKS cells. In the 2nd V50-OKS cells without any compounds and those with FK506, it was observed that NFATc3-GFP localized in the cytoplasm. In contrast, localization of NFATc3-GFP was found in the nuclei of the 2nd V50-OKS cells treated with VPA and CHIR (FIG. 16). […] This is opposite to inhibition of calcineurin via cytoplasm-nuclear translocation of NFAT.

| Structure (SMILES) | viability of 2nd V50-OKS-SW480 cells in the presence of 5-FU compared with parental SW480 cells (2nd V50-OKS-SW480 cells) | sphere forming ability (2nd V50-OKS cells [1]) | number of secondary dome-shaped colonies (2nd V50 cells) | effect in flat plane adhesion culture (morphology, number of cells) (2nd V50-OKS cells [2]) | cellular localization of NFATc3-GFP (NFATc3-GFP) | effect on the cell number (2nd V50-OKS cells [2]; 2nd V50-OKS cultures, FK506 25 μM, 5 days after passage) | total cell number amplification (2nd V50-OKS cells [2]; 2nd V50 cells adhesion cultured with FK506, 10 days) | total cell number amplification (2nd V50-OKS cells [2]; 2nd V50 cells adhesion cultured with FK506, 15 days) |
| --- | --- | --- | --- | --- | --- | --- | --- | --- |
| O=c1[nH]cc(F)c(=O)[nH]1 [5-FU, 5-fluorouracil] | significantly higher | – | – | – | – | – | – | – |
| CCCC(CCC)C(=O)O [VPA, valproic acid] | – | significantly suppressed | decreased | the same effect as siRNA | nuclei | – | – | – |
| C=CC[C@@H]1/C=C(\C)C[C@H](C)C[C@H](OC)[C@H]2O[C@@](O)(C(=O)C(=O)N3CCCC[C@H]3C(=O)O[C@H](/C(C)=C/[C@@H]3CC[C@@H](O)[C@H](OC)C3)[C@H](C)[C@@H](O)CC1=O)[C@H](C)C[C@@H]2OC [FK506, FK506 (tacrolimus)] | – | – | – | – | – | no significant effect | about 100 times | about 1000 times |
| Cc1c[nH]c(-c2cnc(NCCNc3ccc(C#N)cn3)nc2-c2ccc(Cl)cc2Cl)n1 [CHIR99021] | – | significantly suppressed | decreased | the same effect as siRNA | nuclei | – | – | – |
